Results as given in article PMC12516379, “Rotamer-Controlled Self-Immolative Linkers Enable Tunable Release of Neurosteroid Oxime Prodrugs” (ACS Medicinal Chemistry Letters, 2025).

Columns and labels:
[1] = Stability in acetate buffer pH 5.0 at room temperature via HPLC (UV); assay type: physicochemical
Description: (§1) Stability studies were conducted in PBS and acetate buffer utilizing high performance liquid chromatography for potential drug storage considerations. […]
(§2) All experiments were performed in duplicate and results are presented as the average of two experimental replicates.
(§3) 1.1 Aqueous Stability in PBS and Acetate Buffer via HPLC
(§4) Material and Instrumentation
(§5) HPLC grade acetonitrile (MeCN) […] HPLC grade water (H 2O), and formic acid (FA) were purchased from Fisher Scientific.
(§6) Puradisc 4 mm PTFE (0.45 μm) syringe filters from Cytiva. Gibco ® Dulbecco’s phosphate-buffered saline (DPBS 1X, no calcium, no magnesium, pH = 7.03) and acetate buffer (pH = 5.0, 10 mM) were purchased directly from Thermo Fisher Scientific and Cytiva, respectively.
(§7) Aqueous stability experiments were performed on an Agilent 1100 HPLC equipped with an Agilent G1315B diode array detector, an Agilent G1316A heated column compartment, and a Zorbax Eclipse XDB-C18 (4.6 x 150 mm, 5 μm) column.
(§8) Procedure for Aqueous Stability Experiments
(§9) Each sample was first weighed out in two separate 2.0 mL vials using an analytical balance.
(§10) Unless otherwise specified, the test compounds were then dissolved in the aqueous media (PBS or acetate buffer) at a standard concentration of 1 mg/mL. All mixtures were subsequently sonicated for approximately 30 sec. […]
(§11) min), precipitates observed in sample solutions were filtered with a PTFE syringe filter prior to analysis. Immediately after sample preparation, injection by the HPLC autosampler was performed, which was recorded as the initial time point (t = 0 min). Solutions were then kept in the autosampler at RT and reinjected at designated intervals without additional filtration or sample modification. Remaining prodrug was defined by the area under the curve (AUC) at 254 nm. Aqueous stability was ascertained by calculating the percentage of the parent compound remaining after each time point. Linear regression of the time (x-axis) vs. ln(%remaining) (y-axis) plot afforded the rate constant k (slope = -k). Pseudo first-order half-lives were then calculated by the following equation: t1/2 = 0.693/k.

[2] = Stability in PBS at room temperature via HPLC (UV); assay type: physicochemical; settings: phosphate-buffered saline (DPBS)
Description: as §1, §2, §3, §4, §5, §6, §7, §8, §9, §10, §11

[3] = PBS stability assay at 37 °C via LC-MS/MS; assay type: physicochemical; settings: for half-life at 3 µM: pH 7.03, PBS
[4] = Plasma stability assay at 37 °C via LC-MS/MS, human plasma; assay type: in vitro ADME; settings: for half-life at 3 µM: human, plasma;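 as to all read-outs here: prodrugs at 3 µM incubated in human plasma at 37 °C, intact prodrug quantified by LC-MS/MS over time, values are means of duplicate runs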
Description: To address this, prodrug stability was further evaluated in human plasma at 37 °C using liquid chromatography–tandem mass spectrometry (LC-MS/MS). For direct comparison, a parallel screen was conducted in PBS under identical conditions (Table ). To prevent premature degradation prior to LC-MS/MS analysis, acetonitrile containing formic acid was used as a quenching solution to acidify and stabilize the prodrugs in vials. […] This limitation in detection, along with the need for a more uniform and broadly applicable assessment across all compounds, prompted us to monitor the formation of the parent oxime as an alternative readout.
Stability experiments in human plasma and PBS were performed via liquid chromatography-tandem mass spectrometry (LC-MS/MS) to determine and compare rate of cleavage of progesterone prodrugs as well as selected allopregnanolone prodrugs (3 µM) when incubated at 37 °C. All experiments were performed in duplicate and results are presented as the average of two experimental replicates.

[5] = Plasma stability assay via LC-MS/MS, rat plasma; assay type: in vitro ADME; settings: read-out: t1/2 in rat plasma (Table S19) (converted)
Description: (§12) Building on our observation that rotamer control in the steric series can be modulated by enzymatic stabilization or activation, we next evaluated whether this effect was species dependent. To investigate this, we performed comparative stability studies by incubating select prodrugs (20a, 20b, 20l and 20t; Figure ) in mouse and rat plasma – two of the most commonly used preclinical species in drug development. This approach allowed us to assess the potential influence of species-specific enzymes on rotamer equilibria and, by extension, prodrug activation rates. The self-immolation profiles for the sterically tuned linker series (20a–b) reveal discernible, species-dependent differences prodrug stability. […] While the precise biochemical drivers remain unclear, this observation warrants further investigation beyond the scope of this work.
(§13) 1.2 Stability in Plasma and PBS via LCMS
(§14) Procaine (positive control) was purchased from Sigma-Aldrich. HPLC grade MeCN, MeOH, H2O, and FA were purchased from Fischer Scientific. Human plasma (cat. No. […]- […]
(§15) 0102242) were obtained from BIOIVT. DPBS 1X (no calcium, no magnesium, pH = 7.03) was purchased from Thermo Fischer Scientific. Stock solutions were prepared in 100% DMSO, and suitable dilutions of target analytes were prepared in 0.1% FA /MeCN for method development.
(§16) For PBS assay Gibco® Dulbecco’s phosphate-buffered saline (DPBS 1X, no calcium, no magnesium, pH = 7.03) was utilized. All experiments were performed in duplicate and results are presented as the average of two experimental replicates.
(§17) Procedure for Plasma Stability Assay
(§18) Test compounds and positive control (i.e. procaine) were dissolved in DMSO to make a 10 mM stock solution and subsequently diluted to 500 μM in 50% MeCN and PBS. This intermediate stock solution was prepared and added immediately prior to the start of each test compound experiment. Plasma was thawed at ambient temperature and aliquoted (663.0 μL) into 1.5 mL Eppendorf tubes. Plasma was incubated at 37 °C for 10 minutes in an incubator shaker at 150 rpm, and the reactions were initiated by addition of the test compound or positive control (4.0 µL, 3 μM). The spiked plasma samples were incubated at 37 °C. For designated time points, 75 µL aliquots were removed from the incubation mixture and immediately quenched in 150 µL of MeCN/0.1%FA with internal standard (ISTD, 2 µM d 5-7-ethoxy coumarin). […] The supernatant was transferred to an LC-MS vial and analyzed by LC/MS-MS. […]
(§19) LC–MS/MS analysis was performed using an Agilent 1260 Infinity II HPLC, coupled with an Agilent G6460 triple quadrupole mass spectrometer (Agilent Technologies, USA). All the data were acquired employing Agilent 6460 Quantitative Analysis data processing software. […]

[6] = Plasma stability assay via LC-MS/MS, mouse plasma; assay type: in vitro ADME; settings: read-out: t1/2 in mouse plasma (Table S20) (converted)
Description: as §12, §13, §14, §15, §16, §17, §18, §19

[7] = Aqueous solubility by visual inspection in acetate buffer (pH 5); settings: sodium acetate buffer
Description: For the solubility assessment, acetate buffer (pH 5) was selected as the media of choice to ensure prodrug stability during analysis.
High aqueous solubility was determined by visual inspection of 5 mg solid material in 0.5 mL
sodium acetate buffer solution. This media was selected to ensure stability of prodrugs during
dissolution in 50 mg/mL aqueous media.

[8] = Formation of progesterone oxime 3 from prodrugs in human plasma at 37 °C over 2 h; assay type: in vitro ADME; settings: 2 h period
Description: Given the greater biological relevance of plasma, we focused on quantifying the formation of progesterone and allopregnanolone oxime in human plasma at 37 °C over a 2 h period. Results for selected progesterone prodrugs are presented in Figure A–C, illustrating the broad range of plasma cleavage rates as a function of promoiety design (see Figure S13 in Supporting Information for complete data set). Complete stability data for synthesized allopregnanolone prodrugs (Figures S18–S20) are provided in the Supporting Information. Given that their trends closely paralleled the progesterone series, they were not discussed in detail in the main text. […] This unexpected result prompted further investigation using computational modeling, described in the following section. […] Higher pK a values were associated with faster and more complete oxime formation, likely due to enhanced H-bonding which could stabilize the reactive syn-conformer. […] For the heterocyclic pyrrolidine and angle-strained series (Figure C), the release rates closely matched the experimentally determined prodrug half-lives (Table ), which were shorter in human plasma than in PBS. […] Although both 20s and 20t are capable of adopting the reactive syn-rotamer, their self-immolation reactivity diverged due to differences in linker geometry. The cyclopropane in 20s induces angle strain that hinders nucleophilic attack, rendering the compound stable under both PBS and plasma conditions. […] This intriguing result warrants further investigation, with follow-up studies currently in progress. Finally, the nucleophilic capacity of the amine tethers in prodrugs 20w–20z were evaluated based on their ability to cyclize in plasma, as detailed in the Supporting Information Figure S13.
as §13, §14, §15, §16, §17
Test compounds and positive control (i.e. procaine) were dissolved in DMSO to make a 10 mM stock solution and subsequently diluted to 500 μM in 50% MeCN and PBS. […] The supernatant was transferred to an LC-MS vial and analyzed by LC/MS-MS. […]

[9] = pH 5, acetate buffer pH 5.0, RT, 1 mg/mL, HPLC 254 nm, read-out: t1/2 in acetate buffer at RT (Tables S5-S8) (converted)
[10] = pH 5, acetate buffer pH 5.0, rt, HPLC (UV), read-out: Half-life (t½) pH 5.0 rt (converted)
[11] = pH 5, acetate buffer pH 5.0, rt, read-out: t½: pH 5.0, rt (Table S23) (converted)
[12] = pH 7.03, DPBS pH 7.03, RT, 1 mg/mL, HPLC 254 nm, read-out: t1/2 in PBS buffer at RT (Tables S1-S4) (converted)
[13] = pH 7.03, PBS, rt, HPLC (UV), read-out: Half-life (t½) PBS rt (converted)
[14] = pH 7.03, PBS, rt, read-out: t½: PBS, rt (Table S23) (converted)
[15] = phosphate-buffered saline (DPBS), 37 °C, 3 µM, LC-MS/MS, read-out: t1/2 in PBS at 37 °C (Tables S14-S17) (converted)
[16] = phosphate-buffered saline (DPBS), 37 °C, LC-MS/MS, read-out: Half-life (t½) PBS 37°C (converted)
[17] = phosphate-buffered saline (DPBS), 37 °C, read-out: PBS, 37 °C t½ (Table S23) (converted)
[18] = 3 µM, LC-MS/MS, read-out: t1/2 in human plasma at 37 °C (Tables S10-S13, S18) (converted)
[19] = LC-MS/MS, read-out: Half-life (t½) Plasma 37°C (converted)
[20] = read-out: Plasma, 37 °C t½ (Table S23) (converted)
[21] = pH 5, aqueous buffer, thermodynamic from solid

| SMILES | half-life at 1 mg/mL [1, 9] [days] | half-life at 1 mg/mL [1, 10] [days] | half-life at 1 mg/mL [1, 11] [days] | half-life at 1 mg/mL [2, 12] [min] | half-life at 1 mg/mL [2, 13] [min] | half-life at 1 mg/mL [2, 14] [min] | PBS, 37 °C %rem. at 2h (Table S23) ([3]; PBS, 37 °C, 2 h) [%] | half-life at 3 µM [3, 15] [h] | half-life at 3 µM [3, 16] [h] | half-life at 3 µM [3, 17] [h] | Plasma, 37 °C %rem. at 2h (Table S23) [4] | half-life at 3 µM [4, 18] [min] | half-life at 3 µM [4, 19] [min] | half-life at 3 µM [4, 20] [min] | half-life at 3 µM [5] [min] | half-life at 3 µM [6] [min] | solubility [7, 21] [µg/mL] | Formation/release of oxime 3 in human plasma, in words [8] | also measured |
| --- | --- | --- | --- | --- | --- | --- | --- | --- | --- | --- | --- | --- | --- | --- | --- | --- | --- | --- | --- |
| CNCCN(C(=O)O/N=C(\C)[C@H]1CC[C@H]2[C@@H]3CCC4=CC(=O)CC[C@]4(C)[C@H]3CC[C@]12C)C1CC1.O=C(O)C(F)(F)F [20b] | > 7 | > 7 | > 7 | 1690 ± 2.4 | 1690 | 1690 | 68 | 4.5 | 4.5 | 4.5 | 31% | 76.2 | 76.2 | 76.2 | 138 | 324 | > 10000 | – | half-life at 3 µM ([3]; phosphate-buffered saline (DPBS), 37 °C, read-out: t1/2 (h) PBS, 37 °C (Tables S25, S26) (converted)): 4.5 h; remaining at 2 h, 3 µM ([3]; phosphate-buffered saline (DPBS), pH 7.03, PBS, 37 °C, 2 h, read-out: % Remaining @ 2h, PBS, 37 °C (Tables S25, S26)): 68% |
| CNCCN(CCN(C)C)C(=O)O/N=C(\C)[C@H]1CC[C@H]2[C@@H]3CCC4=CC(=O)CC[C@]4(C)[C@H]3CC[C@]12C [20g] | 3.16 | 3.16 | 3.16 | 130.2 ± 1.2 | 130 | 130 | – | – | – | – | – | – | – | – | – | – | < 10000 | rapid, first-order release | – |
| C/C(=N\OC(=O)N(C)C[C@@H]1CCCN1)[C@H]1CC[C@H]2[C@@H]3CCC4=CC(=O)CC[C@]4(C)[C@H]3CC[C@]12C.O=C(O)C(F)(F)F [20l] | 7.29 | 7.29 | 7.29 | 114 ± 7.2 | 114 | 114 | 8 | 0.74 | 0.74 | 0.74 | 1% | 18.6 | 18.6 | 18.6 | 24 | 24 | > 10000 | – | – |
| C/C(=N\OC(=O)N(C)C[C@@H]1CC(F)(F)CN1)[C@H]1CC[C@H]2[C@@H]3CCC4=CC(=O)CC[C@]4(C)[C@H]3CC[C@]12C [20r] | – | – | – | – | – | – | 72 | 4.93 | 4.93 | 4.93 | stable | – | – | > 1440 | – | – | – | low levels of oxime | Prodrug stability / self-immolation in buffer, in words ([3]; PBS): highly stable, noncleaving prodrug; t1/2 in human plasma at 37 °C (Tables S10-S13, S18) ([4]; 3 µM, LC-MS/MS): stable; Half-life (t½) Plasma 37°C ([4]; LC-MS/MS): stable; solubility ([7]; pH 5): < 10000 µg/mL |
| CNC1(CN(C)C(=O)O/N=C(\C)[C@H]2CC[C@H]3[C@@H]4CCC5=CC(=O)CC[C@]5(C)[C@H]4CC[C@]23C)CCC1 [20t] | > 7 | > 7 | > 7 | 629 | 629 | 629 | 14 | 0.94 | 0.94 | 0.94 | 4% | 26.4 | 25.8 | 26.4 | 27.6 | 20.4 | > 10000 | – | – |
